For one experiment, the system named is C57BL6 mice. The experiment in a line: Acute oral glucose tolerance test. In kind it is in vivo. As to conditions: % change in glucose AUC (0-180 min) from vehicle, 0.3 mg/kg oral; for Acute oral glucose tolerance: co-administered with glucose 2 g/kg. As to the method: Acute Oral Glucose Tolerance Test
Ten week old C57BL6 mice were housed individually and fasted for 5 hours on the day of study. Tail vein sampling was performed from nicked tails to obtain plasma samples. Baseline plasma samples were taken at t=0. Mice were orally treated with vehicle or compounds co-administered with glucose (2 g/kg). Sampling thereafter from tails of treated mice at 20, 40, 60, 120 and 180 min provided data used for generating glucose excursion curves from which 0-180 min blood glucose excursion profiles were generated. The area under the curve (AUC) allowed for assessment of glucose lowering by compound treatments. Blood samples were collected in EDTA-treated tubes (MICROVETTE® CB300, Sarstedt, Numbrecht, Germany), stored on ice and spun @ 6000 rpm for 10 minutes. Plasma glucose was analyzed on the same day using an AU680 Clinical Chemistry Analyzer (Beckman Coulter, Brea, Calif.). Statistical analysis is a one way ANOVA with Dunnett's post hoc test or two-way student's t test where appropriate. P values less than 0.05 were considered statistically significant.

Experiment [1] concerns the target T1, hGPR40 (Homo sapiens, UniProt O14842). In words: GPR40 IP-One HTRF assay in HEK293/GPR40 inducible cell lines. In kind it is cell-based. On the set-up: expressed in transfected cells. The conditions noted are these: HEK293 cells with tetracycline-inducible human GPR40; read-out: hGPR40 IP1 EC50. As to the method: GPR40 IP-One HTRF Assays in HEK293/GPR40 Inducible Cell Lines
Human, mouse and rat GPR40-mediated intracellular IP-One HTRF assays were established using human embryonic kidney HEK293 cells stably transfected with a tetracycline-inducible human, mouse or rat GPR40 receptor. Cells were routinely cultured in growth medium containing DMEM (Gibco Cat. #12430-047), 10% qualified FBS (Sigma, Cat. #F2442), 200 μg/ml hygromycin (Invitrogen, Cat. #16087-010) and 1.5 μg/ml blasticidin (Invitrogen, Cat. #R210-01). About 12-15 million cells were passed into a T175 tissue culture flask (BD FALCON® 353112) with growth medium and incubated for 16-18 hours (overnight) at 370 C with 5% CO2. The next day, assay medium was exchanged with growth medium containing 1000 ng/mL of tetracycline (Fluka Analytical, Cat. #87128) to induce GPR40 expression for 18-24 hours at […] incubator with 5% CO2. After induction, the cells were washed with PBS (Gibco, Cat. #14190-036) and detached with Cell Stripper (CELLGRO®, Cat. #25-056-CL). 10-20 mL growth medium were added to the flask and cells were collected in 50 mL tubes (FALCON®, Cat. #352098) and spun at 1000 RPM for 5 minutes. Culture medium was aspirated and the cells were resuspended in 10 mL of 1× IP-One Stimulation Buffer from the Cisbio IP-One kit (Cisbio, Cat. #62IPAPEJ). The cells were diluted to 1.4×10^6 cells/mL in Stimulation Buffer.
Test compounds were 3-fold, 11-point serially diluted in DMSO in a REMP assay plate (Matrix Cat. #4307) by BIOCEL® (Agilent). The compounds were transferred into an Echo plate (LABCYTE, Cat. #LP-0200) and […] of diluted compounds were transferred to an assay plate (proxi-plate from Perkin Elmer, Cat. #6008289) by Echo acoustic nano dispenser (LABCYTE, model ECHO550). 14 μL of the diluted cells were then added to the assay plate by Thermo (SN 836 330) CombiDrop and incubated at room temperature for 45 minutes. Then 3 μL of IP1 coupled to dye D2 from the Cisbio IP-One kit were added to the assay plate followed by 3 μL of Lumi4TM-Tb cryptate K from the kit. The plate was further incubated at room for 1 hour before reading on the Envision (Perkin Elmer Model2101) with an HTRF protocol. Activation data for the test compound over a range of concentrations was plotted as percentage activation of the test compound (100%=maximum response). After correcting for background [(sample read-mean of low control)/(mean of high control−mean of low control)](low control is DMSO without any compound), EC50 values were determined. The EC50 is defined as the concentration of test compound which produces 50% of the maximal response and was quantified using the 4 parameter logistic equation to fit the data.

The target in experiment [2] is T1, hGPR40. The experiment in a line: FDSS-based intracellular calcium assay. In kind it is cell-based. On the set-up: 3xFLAG; expressed in transfected cells. The conditions noted are these: intracellular Ca2+ response, cells expressing GPR40. The method, then: FDSS-Based Intracellular Calcium Assay
Compounds are dissolved in DMSO and diluted to desired concentrations with assay buffer and added to the cells as 3× solution (20 μL per well). Run fluorescence/luminescence reader FDSS (Hamamatsu) to read intracellular Ca^2+ response.
Background: A change in cytosolic calcium serves as a functional read-out for many receptors and channels.

T1 sequence (O14842 whole entry): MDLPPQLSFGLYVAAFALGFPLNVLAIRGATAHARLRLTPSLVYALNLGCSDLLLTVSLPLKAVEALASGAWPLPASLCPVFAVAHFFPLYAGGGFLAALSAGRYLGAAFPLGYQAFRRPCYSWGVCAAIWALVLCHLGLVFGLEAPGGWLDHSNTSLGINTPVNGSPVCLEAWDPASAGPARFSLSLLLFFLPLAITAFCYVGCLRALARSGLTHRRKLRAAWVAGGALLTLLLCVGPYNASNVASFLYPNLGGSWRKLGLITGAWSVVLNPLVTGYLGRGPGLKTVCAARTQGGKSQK

Broadly, the EC50 is the midpoint of the concentration-response curve. As for `CCOc1ccc(F)c(N2CC[C@@H](Oc3ccc(N4N=C(C(F)(F)F)[C@@H](C)[C@@H]4CC(=O)O)cc3)[C@H](C)C2)c1` [Example 29, 2-((4S,5S)-1-(4-(((3R,4R)-1-(5-Ethoxy-2-fluorophenyl)-3-methylpiperidin-4-yl)oxy)phenyl)-4-methyl-3-(trifluoromethyl)-4,5-dihydro-1H-pyrazol-5-yl)acetic acid], the “Acute oral glucose tolerance (average of two experiments)” value with C57BL6 mice (average of two experiments) was −52%. Also, the EC50 is 0.011 µM on hGPR40 [1] and 0.154 µM on hGPR40 [2].

Take `COc1cc(N2CCC(Oc3ccc(N4N=C(C(F)(F)F)[C@@H](C)[C@@H]4CC(=O)O)cc3)CC2)c(Cl)cn1` [Example 77, 2-((4S,5S)-1-(4-((1-(5-Chloro-2-methoxypyridin-4-yl)piperidin-4-yl)oxy)phenyl)-4-methyl-3-(trifluoromethyl)-4,5-dihydro-1H-pyrazol-5-yl)acetic acid]: in the experiment with C57BL6 mice, the “Acute oral glucose tolerance” value is on record as −38%. Further, the 50% effective concentration (EC50) on hGPR40 [1] was 0.02 µM; at hGPR40 [2], 0.11 µM.

In the case of `CCOc1ccc(F)c(N2CCC(Oc3ccc(N4N=C(c5ccc(C#N)cc5)[C@@H](C)[C@@H]4CC(=O)O)cc3)CC2)c1` [Example 93, 2-((4S,5S)-3-(4-Cyanophenyl)-1-(4-((1-(5-ethoxy-2-fluorophenyl)piperidin-4-yl)oxy)phenyl)-4-methyl-4,5-dihydro-1H-pyrazol-5-yl)acetic acid], the “Acute oral glucose tolerance” value in the experiment with C57BL6 mice is reported as −56%. For the same compound, the results for the EC50 at hGPR40 [1] and on hGPR40 [2] were 0.007 µM and 0.082 µM, respectively.

The record behind these values is US9133163B2, “Dihydropyrazole GPR40 modulators” (Bristol-Myers Squibb Company, priority 2012, dated 2015).
